Source: patent publication US12195493B2, “Reversibly blocked nucleoside analogues and their use” (MGI Tech Co., Ltd., priority 2016, dated 2025)
Entries after “also recorded” stand apart in the source; their conditions may differ. One block for each compound: values may come before it.

What was measured:
[1] = Cleavage studies with a variety of nucleophiles at 50° C. (Example 6); assay type: physicochemical
Experimental: Cleavage studies were performed according to the scheme shown below using a variety of nucleophiles. The nucleophiles, concentration, pH, and solvent are indicated for each study. The nucleoside analogue containing a 3′-O-blocking group and a linking group were treated with a nucleophile at 50° C. in solvent to form analogues having both the blocking group and linking group cleaved 13 and only the linking group cleaved 15. SM indicates starting material.
Table of Results (Experimental Conditions: T=50° C.; 1.0 mg 12/mL solvent).

[2] = test system: polymerase; assay: Polymerase incorporation in sequencing by synthesis on nanoball arrays (FIG. 1); assay type: biochemical; conditions: compared with unlabeled (cold) control 3′-O-azidomethyl-dTTP
Experimental: (§1) Allenyl-dTTP and cyanoethenyl-dTTP were incubated at room temperature for 24 hours, or 65° C. for 2 hours. Fresh mixes were also made the day of the experiment. Allenyl-dTTP or cyanoethenyl-dTTP were mixed with unlabeled AGC (AGC-Cold) and used as both the hot (labeled) and cold (unlabeled) chase. Nanoball arrays were imaged to obtain a control image. Then, the array was incubated with labeled mixes to check for incorporation on unblocked ends. […] Moreover, both allenyl-dTTP and cyanoethenyl-dTTP are stable at room temperature for 24 hours and 65° C. for 2 hours as indicated by their ability to efficiently incorporate into polymerization product and thereby block subsequent polymerization and incorporation of the hot chase label.

[3] = Stability after incubation, read out by incorporation and blocking of hot chase label; assay type: physicochemical
Experimental: as §1

[4] = 3′-O-Cyanoethyl cleavage in solution or on Biochips; conditions: added reagent in cleavage buffer, FIGS. 2 and 3
[5] = Monitoring cleavage of 3′-O reversible blocker by LC-MS (Example 2); assay type: physicochemical
Experimental: Cleavage reactions were performed using 5 mg of compound 8 (3′-O-cyanoethyenyl-thymidine) in 0.25 mL of acetonitrile and 0.25 mL of buffer. Cleavage was monitored by LC-MS and the results are depicted in the table below.

amount of the product obtained (SM = starting material) ([1]; Entry 24, Cleland's reagent (dithiothreitol) 1.0 M, pH 9.0, Water + 10% MeCN, t = 1 h): 5% SM + 95% of unidentified species
amount of the product obtained (SM = starting material) ([1]; Entry 24, Cleland's reagent (dithiothreitol) 1.0 M, pH 9.0, Water + 10% MeCN, t = 18 h): No SM + unidentified species
amount of the product obtained (SM = starting material) ([1]; Entry 25, 4-Methoxy-N-methylaniline 1.0 M, pH 8.3, Water/MeCN (1:2), t = 1 h): 95% SM + 5% of unidentified species
amount of the product obtained (SM = starting material) ([1]; Entry 25, 4-Methoxy-N-methylaniline 1.0 M, pH 8.3, Water/MeCN (1:2), t = 18 h): 95% SM + 5% of unidentified species
SMILES: N#C/C=C/O[C@H]1C[C@H](n2cc(C#CCNC(=O)C(F)(F)F)c(=O)[nH]c2=O)O[C@@H]1CO [compound 12]
amount of the product obtained (SM = starting material) ([1]; Entry 22, Morpholine 1.0 M, pH 9.0, Water + 10% MeCN, t = 1 h): 25% SM + 40% of (15) + 35% of unidentified species
amount of the product obtained (SM = starting material) ([1]; Entry 22, Morpholine 1.0 M, pH 9.0, Water + 10% MeCN, t = 18 h): No SM 40% of (15) + 60% of unidentified species
amount of the product obtained (SM = starting material) ([1]; Entry 26, N,N′-Dimethylene diamine 1.0 M, pH 9.0, Water + 10% MeCN, t = 1 h): 5% SM + 20% of (15) + 75% of unidentified species
amount of the product obtained (SM = starting material) ([1]; Entry 26, N,N′-Dimethylene diamine 1.0 M, pH 9.0, Water + 10% MeCN, t = 18 h): No SM + 20% of (15) + 80% of unidentified species
amount of the product obtained (SM = starting material) ([1]; Entry 27, N-Methylhydroxyl amine hydrochloride 1.0 M, pH 9.0, Water + 10% MeCN, t = 1 h): 16% Product (13) + 10% of (15) + 74% of unidentified species
amount of the product obtained (SM = starting material) ([1]; Entry 27, N-Methylhydroxyl amine hydrochloride 1.0 M, pH 9.0, Water + 10% MeCN, t = 18 h): 10% of (15) + 90% of unidentified species
amount of the product obtained (SM = starting material) ([1]; Entry 28, N,N′-dimethyl-cis-cyclohexane-1,2-diamine 1.0 M, pH 9.0, Water/MeCN (2:1), t = 1 h): 60% SM + 35% of (15) + 5% of unidentified species
amount of the product obtained (SM = starting material) ([1]; Entry 28, N,N′-dimethyl-cis-cyclohexane-1,2-diamine 1.0 M, pH 9.0, Water/MeCN (2:1), t = 18 h): 30% SM + 50% of (15) + 20% of unidentified species

SMILES: C=C=CO[C@H]1C[C@H](n2cc(C)c(=O)[nH]c2=O)O[C@@H]1COP(=O)(O)OP(=O)(O)OP(=O)(O)O [allenyl-dTTP, 3′-O-allenyl-thymidine triphosphate]
effectiveness as polymerase substrate for sequencing by synthesis [2]: as effective a polymerase substrate for sequencing by synthesis as the unlabeled control 3′-O-azidomethyl-dTTP; also recorded: as effective polymerase substrates for sequencing as the cold control, 3′-azidomethyl-dTTP
stability ([3]; 65° C. for 2 hours): stable
stability ([3]; room temperature for 24 hours): stable

effect on cleavage efficiency [4]: improved effect
SMILES: F [F^−]

time to complete cleavage ([5]; 10 equivalents of dimethylamine in acetonitrile/0.1 M TEAB): 20 to 30 min
time to complete cleavage ([5]; 40 equivalents of dimethylamine in acetonitrile/0.1 M TEAB): ≤ 10 min
time to complete cleavage ([5]; 40 equivalents of dimethylamine in acetonitrile/0.5 M phosphate buffer): 10 to 20 min
time to complete cleavage ([5]; 40 equivalents of dimethylamine in acetonitrile/1 M Tris buffer): ≤ 10 min
SMILES: Cc1cn([C@H]2C[C@H](OC=CC#N)[C@@H](CO)O2)c(=O)[nH]c1=O [compound 8, 3′-O-cyanoethenyl-thymidine]

effect on cleavage efficiency [4]: improved effect
SMILES: O=P([O-])([O-])OP(=O)([O-])[O-].[K+].[K+].[K+].[K+] [K4PPi]

SMILES: Cc1cn([C@H]2C[C@H](OC=CC#N)[C@@H](COP(=O)(O)OP(=O)(O)OP(=O)(O)O)O2)c(=O)[nH]c1=O [cyanoethenyl-dTTP, 3′-O-cyanoethenyl-thymidine triphosphate]
effectiveness as polymerase substrate for sequencing by synthesis [2]: as effective a polymerase substrate for sequencing by synthesis as the unlabeled control 3′-O-azidomethyl-dTTP
effectiveness as polymerase substrate for sequencing by synthesis ([2]; listed as cyanoethyl-dTTP): as effective polymerase substrates for sequencing as the cold control, 3′-azidomethyl-dTTP
stability ([3]; 65° C. for 2 hours): stable
stability ([3]; room temperature for 24 hours): stable
